# Test results from patent publication US9809623B2, “α4β7 peptide monomer and dimer antagonists” (Protagonist Therapeutics, Inc., priority 2014, dated 2017).
# Numbered stars: 1 amine (or outer) side, 2 acyl side, 3 side chain; on linkers, the order of the positions; unused ones are H or OH. Bridge positions count the residues as written; N and C are the ends. Square brackets hold non-standard residues; d marks the D form. Peptide text beside a SMILES is read from it. I, II: the chains in the order shown. Diglycolyl = O=C(COCC(=O)[*:2])[*:1]; NMeR = CN[C@@H](CCCNC(=N)N)C(=O)O; Pen = CC(C)(S)[C@H](N)C(=O)O; dNMeK = CN[C@H](CCCCN)C(=O)O
# Legend:
# rh integrin α4β7 = target: T1, rh integrin α4β7 (Homo sapiens, UniProt P13612+P26010); test: α4β7-MAdCAM Competition ELISA; type: binding; conditions: Table 4-B; read-out: ELISA α4β7 IC50
# T1 construct: purchased R&D Systems 5397-A30
# T1 sequence (P13612 34-977 limits assumed): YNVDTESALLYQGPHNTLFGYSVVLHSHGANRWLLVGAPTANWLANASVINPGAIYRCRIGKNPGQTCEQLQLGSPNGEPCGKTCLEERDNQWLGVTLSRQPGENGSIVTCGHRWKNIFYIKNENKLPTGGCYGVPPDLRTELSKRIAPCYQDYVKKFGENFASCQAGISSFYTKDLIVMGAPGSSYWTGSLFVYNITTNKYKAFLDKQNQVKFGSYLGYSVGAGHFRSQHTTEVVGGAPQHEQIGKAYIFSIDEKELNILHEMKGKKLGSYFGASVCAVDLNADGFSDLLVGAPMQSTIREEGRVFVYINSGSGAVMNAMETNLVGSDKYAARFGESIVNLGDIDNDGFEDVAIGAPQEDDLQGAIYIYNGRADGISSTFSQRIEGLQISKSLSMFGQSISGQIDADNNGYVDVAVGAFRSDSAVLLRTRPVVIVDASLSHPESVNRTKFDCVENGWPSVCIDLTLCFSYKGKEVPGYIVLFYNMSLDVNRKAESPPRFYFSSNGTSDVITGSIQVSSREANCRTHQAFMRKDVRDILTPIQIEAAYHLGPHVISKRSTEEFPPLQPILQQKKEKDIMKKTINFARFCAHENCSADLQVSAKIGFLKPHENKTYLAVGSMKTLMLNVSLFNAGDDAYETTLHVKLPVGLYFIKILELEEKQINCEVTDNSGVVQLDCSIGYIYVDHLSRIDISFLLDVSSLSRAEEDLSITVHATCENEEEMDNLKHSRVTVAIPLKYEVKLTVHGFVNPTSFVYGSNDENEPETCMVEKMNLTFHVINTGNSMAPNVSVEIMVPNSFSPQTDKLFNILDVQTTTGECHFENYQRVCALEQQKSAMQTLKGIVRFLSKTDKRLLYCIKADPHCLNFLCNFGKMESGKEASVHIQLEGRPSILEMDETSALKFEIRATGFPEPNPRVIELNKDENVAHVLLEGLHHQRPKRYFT
# T1 sequence (P26010 20-723 limits assumed): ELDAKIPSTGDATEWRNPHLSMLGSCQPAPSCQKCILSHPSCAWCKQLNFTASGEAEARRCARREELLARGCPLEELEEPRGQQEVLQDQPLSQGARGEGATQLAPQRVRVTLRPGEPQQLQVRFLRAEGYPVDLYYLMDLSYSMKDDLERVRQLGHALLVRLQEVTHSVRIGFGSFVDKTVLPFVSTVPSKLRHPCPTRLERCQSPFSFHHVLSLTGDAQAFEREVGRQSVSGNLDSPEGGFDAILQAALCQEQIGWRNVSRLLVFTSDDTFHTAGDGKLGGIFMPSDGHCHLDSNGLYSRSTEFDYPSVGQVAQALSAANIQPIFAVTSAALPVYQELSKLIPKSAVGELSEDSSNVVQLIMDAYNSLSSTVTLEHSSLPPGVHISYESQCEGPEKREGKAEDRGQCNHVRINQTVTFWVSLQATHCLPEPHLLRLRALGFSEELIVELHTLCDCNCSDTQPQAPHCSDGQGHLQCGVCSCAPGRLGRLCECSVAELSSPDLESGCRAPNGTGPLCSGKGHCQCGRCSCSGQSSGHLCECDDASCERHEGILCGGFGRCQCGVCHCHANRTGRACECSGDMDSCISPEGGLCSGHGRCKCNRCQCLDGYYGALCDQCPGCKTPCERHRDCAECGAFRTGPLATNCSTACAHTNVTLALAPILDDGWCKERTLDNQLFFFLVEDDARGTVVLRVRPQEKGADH
# How it was run: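 Competition read-out was A450 after anti-human IgG1-HRP and TMB detection of bound recombinant human MAdCAM-1 (10 nM final). Peptides were serially diluted 3-fold from a final 10 μM and equilibrated 1 h at room temperature on nickel-captured α4β7 (800 ng/well). The buffer was Tris pH 7.6 with 1 mM Mn2+ or Mg2+.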
# α4β1 = target: T2, α4β1 (Homo sapiens, UniProt P05556+P13612, DEL729-798); test: α4β1-VCAM Competition ELISA; type: binding; conditions: Table 4-B; read-out: ELISA_α4β1 IC50
# T2 construct: purchased R&D Systems 5668-A4
# T2 sequence (P13612 34-977 limits assumed, stated change not applied): as the sequence (P13612 34-977 limits assumed) above
# T2 sequence (P05556 21-728 limits assumed, stated change not applied): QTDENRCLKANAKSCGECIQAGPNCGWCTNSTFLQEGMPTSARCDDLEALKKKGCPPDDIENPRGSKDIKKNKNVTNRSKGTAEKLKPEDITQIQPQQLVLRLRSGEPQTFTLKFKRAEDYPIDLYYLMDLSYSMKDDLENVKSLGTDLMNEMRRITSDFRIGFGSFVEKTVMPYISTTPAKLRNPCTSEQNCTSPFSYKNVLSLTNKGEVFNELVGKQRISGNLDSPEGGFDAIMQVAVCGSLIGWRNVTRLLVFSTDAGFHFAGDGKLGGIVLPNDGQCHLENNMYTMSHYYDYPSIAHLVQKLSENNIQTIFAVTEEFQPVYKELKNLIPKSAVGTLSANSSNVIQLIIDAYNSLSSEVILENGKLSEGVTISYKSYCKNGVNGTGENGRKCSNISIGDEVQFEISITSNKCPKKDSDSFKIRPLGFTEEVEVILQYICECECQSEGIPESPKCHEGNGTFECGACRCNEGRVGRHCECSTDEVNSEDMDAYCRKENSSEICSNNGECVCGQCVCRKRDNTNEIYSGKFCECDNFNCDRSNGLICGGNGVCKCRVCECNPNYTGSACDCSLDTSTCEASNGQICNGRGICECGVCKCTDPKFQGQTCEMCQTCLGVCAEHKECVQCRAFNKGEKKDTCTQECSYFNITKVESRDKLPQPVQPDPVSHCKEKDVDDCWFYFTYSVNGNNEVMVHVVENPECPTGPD
# How it was run: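 ELISA plates were coated with VCAM-1 Fc at 400 ng/well. Peptide dilutions (highest final 100 μM) and 60 nM α4β1 were incubated 2 h at 37 °C in pH 7.6 Tris buffer containing 1 mM Mn2+ or Mg2+. Integrin retained on the plate was detected by 9F10 antibody, then HRP secondary, with TMB absorbance at 450 nm.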
# α4β7 = α4β7 (Homo sapiens, UniProt P13612+P26010); test: α4β7-MAdCAM Cell Adhesion Assay (RPMI 8866 human cells); type: cell-based; design: host or cells: RPMI 8866 human B lymphoblastoid cells; conditions: Table 4-B; read-out: Cell Adhesion α4β7 IC50
# Chain of α4β7 (P13612 34-1032): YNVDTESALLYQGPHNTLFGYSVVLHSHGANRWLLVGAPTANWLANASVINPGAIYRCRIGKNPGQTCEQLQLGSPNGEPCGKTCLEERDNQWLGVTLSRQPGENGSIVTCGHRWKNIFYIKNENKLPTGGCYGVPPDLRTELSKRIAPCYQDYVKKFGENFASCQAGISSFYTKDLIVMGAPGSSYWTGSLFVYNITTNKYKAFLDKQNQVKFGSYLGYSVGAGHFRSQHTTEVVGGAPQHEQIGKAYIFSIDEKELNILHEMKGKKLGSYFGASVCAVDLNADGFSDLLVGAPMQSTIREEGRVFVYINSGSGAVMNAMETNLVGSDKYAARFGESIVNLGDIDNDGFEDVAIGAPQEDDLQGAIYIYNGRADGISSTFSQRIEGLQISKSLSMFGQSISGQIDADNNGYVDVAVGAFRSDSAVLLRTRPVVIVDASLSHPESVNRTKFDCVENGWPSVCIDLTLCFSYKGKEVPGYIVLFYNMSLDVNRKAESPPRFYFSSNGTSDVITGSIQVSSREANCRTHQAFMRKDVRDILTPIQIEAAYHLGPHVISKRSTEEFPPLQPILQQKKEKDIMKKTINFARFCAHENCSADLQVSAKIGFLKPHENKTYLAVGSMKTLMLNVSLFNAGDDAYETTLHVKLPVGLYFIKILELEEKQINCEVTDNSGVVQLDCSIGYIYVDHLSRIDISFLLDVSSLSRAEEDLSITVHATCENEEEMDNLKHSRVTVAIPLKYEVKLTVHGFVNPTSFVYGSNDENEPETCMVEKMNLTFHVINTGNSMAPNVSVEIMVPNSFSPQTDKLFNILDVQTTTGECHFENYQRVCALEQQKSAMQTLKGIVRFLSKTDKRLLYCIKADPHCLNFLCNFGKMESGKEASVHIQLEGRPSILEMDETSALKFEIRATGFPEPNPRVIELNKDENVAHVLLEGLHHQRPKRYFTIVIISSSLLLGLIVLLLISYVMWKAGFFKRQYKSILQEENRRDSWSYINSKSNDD
# Chain of α4β7 (P26010 20-798): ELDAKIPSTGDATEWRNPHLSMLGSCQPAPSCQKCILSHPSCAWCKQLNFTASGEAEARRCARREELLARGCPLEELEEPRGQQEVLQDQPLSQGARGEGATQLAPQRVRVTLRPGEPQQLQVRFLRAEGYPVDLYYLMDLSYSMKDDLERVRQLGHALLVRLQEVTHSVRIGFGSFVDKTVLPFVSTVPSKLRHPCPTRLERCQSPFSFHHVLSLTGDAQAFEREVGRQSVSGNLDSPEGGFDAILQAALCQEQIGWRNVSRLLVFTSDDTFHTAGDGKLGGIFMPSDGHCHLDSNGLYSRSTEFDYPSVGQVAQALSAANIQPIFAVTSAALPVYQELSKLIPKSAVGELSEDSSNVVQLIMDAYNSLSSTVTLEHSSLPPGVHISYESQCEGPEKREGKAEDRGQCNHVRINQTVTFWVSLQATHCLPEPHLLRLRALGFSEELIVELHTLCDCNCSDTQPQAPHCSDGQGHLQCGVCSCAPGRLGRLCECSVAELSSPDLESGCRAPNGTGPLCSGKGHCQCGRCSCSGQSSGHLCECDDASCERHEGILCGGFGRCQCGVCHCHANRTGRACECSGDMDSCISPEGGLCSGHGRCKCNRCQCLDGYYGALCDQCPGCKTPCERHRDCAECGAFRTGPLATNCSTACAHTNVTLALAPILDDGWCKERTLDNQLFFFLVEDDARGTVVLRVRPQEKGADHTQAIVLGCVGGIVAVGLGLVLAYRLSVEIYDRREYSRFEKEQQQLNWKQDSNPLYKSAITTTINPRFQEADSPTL
# How it was run: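 Adhesion read-out: MTT absorbance at 570 nm minus no-cell wells, after three washes. Plates coated with rh MAdCAM-1/Fc received peptide dilutions plus 200,000 RPMI 8866 cells in Mn2+ (1 mM)-supplemented DMEM, 0.1% BSA, HEPES pH 7, incubated 30-45 min, 37 °C.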
SMILES,IC50 (rh integrin α4β7) [nM],IC50 (α4β1) [nM],IC50 (α4β7) [nM]
"CC(=O)N[C@@H]1C(=O)N(C)[C@@H](CCCNC(=N)N)C(=O)N[C@@H](CO)C(=O)N[C@@H](CC(=O)O)C(=O)N[C@@H]([C@@H](C)O)C(=O)N[C@@H](CC(C)C)C(=O)N[C@H](C(=O)N[C@@H](Cc2c[nH]c3ccccc23)C(=O)N[C@@H](CCC(=O)O)C(=O)N(C)[C@H](CCCCNC(=O)COCC(=O)NCCCC[C@H](C(N)=O)N(C)C(=O)[C@H](CCC(=O)O)NC(=O)[C@H](Cc2c[nH]c3ccccc23)NC(=O)[C@H]2NC(=O)[C@H](CC(C)C)NC(=O)[C@H]([C@@H](C)O)NC(=O)[C@H](CC(=O)O)NC(=O)[C@H](CO)NC(=O)[C@H](CCCNC(=N)N)N(C)C(=O)[C@@H](NC(C)=O)C(C)(C)SSC2(C)C)C(N)=O)C(C)(C)SSC1(C)C [compound 214, [Ac-Pen-(N-Me-Arg)-Ser-Asp-Thr-Leu-Pen-Trp-Glu-(N-Me-D-Lys)-NH2]2-DIG] (I: Ac-[Pen][NMeR]SDTL[Pen]WE[dNMeK]-NH2 / II: Ac-[Pen][NMeR]SDTL[Pen]WE[dNMeK]-NH2; disulfide I:1-I:7, II:1-II:7 (inferred); linker I:10-II:10 via Diglycolyl (inferred))",4.1,436,2.5
"CC(=O)N[C@H]1CSSC(C)(C)[C@@H](C(=O)N[C@H](CCCCN)C(N)=O)NC(=O)[C@H](CC(C)C)NC(=O)[C@H]([C@@H](C)O)NC(=O)[C@H](CC(=O)O)NC(=O)[C@H](CO)NC(=O)[C@H](CCCNC(=N)N)N(C)C1=O [compound 202, Ac-C-N-Me-R-S-D-T-L-Pen-k-NH2] (Ac-C[NMeR]SDTL[Pen][dK]-NH2; disulfide 1-7)",87,1620,11000
